{"source": "patent US20060172993A1", "about": "(priority 2002, published 2006)", "assay_type_in_all_cases": "in vivo, human", "key": {"[1]": {"system": "Patients diagnosed with Alzheimer's Disease", "assay": "ADCS/ADL scale (Activities of Daily Living)", "source_text": "(§1) Subjects in the Placebo group received 21 weeks (5 months) of placebo medication.\nThe ADCS/ADL scale is a 23-item informant-based assessment scale measuring widely applicable daily activities appropriate for patients in the mild to moderate category of Alzheimer's Disease. The 23 items were selected for measurement from the larger set of 45 items studied by Galasko et al (Alzheimer Disease and Associated Disorders, Vol 11, Suppl. 2, 1997). These individual items were scored from 0-3 to […], depending on the question, with a possible total score of 78. A higher score indicated a higher functioning patient.\nThe items and scoring were as follows: • Eating (0-3) • Walking (0-3) • Toileting (0-3) • Bathing (0-3) • Grooming (0-3) • Dressing • selection of clothes (0-3) • physical performance (0-4) • Telephone (0-5) • Television (0-3) • Conversation (0-3) • Dishes (0-3) • Managing personal belongings (0-3) • Obtaining beverages (0-3) • Making a meal or snack (0-4) • Disposal of garbage (0-3) • Travel outside home (0-4) • Shopping (0-4) • Keeping appointments (0-3) • Ability to be left alone (0-3) • Current events (0-3) • Reading (0-2) • Writing (0-3) • Hobbies (0-3) • Household appliances (0-4)\nAn additional secondary indication captures overall changes in Activities of daily Living (ADL) performances as measured by the Alzheimer's Disease Cooperative Study Activities of Daily Living (ACDS/ADL) scale. As mentioned above this scale is comprised of 23 items that have been tested and validated in patients with mild to moderately severe Alzheimer's disease."}, "[2]": {"system": "Patients diagnosed with Alzheimer's Disease", "assay": "Neuropsychiatric Inventory (NPI)", "source_text": "as §1\nNeuropsychiatric behavior was monitored by a test known as The Neuropsychiatric Inventory (NPI) (Cummings, J. L. et al., Neurology, 44: 2308-2314, 1994). The NPI covers 10 domains of behaviors reported in patients with Alzheimer's Disease: delusions, hallucinations, agitation/aggression, dysphoria, anxiety, euphoria, apathy, disinhibition, irritability/lability and aberrant motor behavior. For each domain abnormal behavior can be absent (score 0) or present. If present, the frequency and severity of abnormal behavior is rated based on answers to a set of subquestions regarding behaviors relevant to that domain. Severity was rated 1 to 3 as mild, moderate or marked. Frequency was rated 1 to 4 as occasionally, often, frequently and very frequently. The product of frequency and severity (maximum score=12) was calculated for each domain. A total of NPI was calculated as the sum of the frequency and severity products (maximum score=120). The NPI was performed at visits 2, 3, 4 and 5 (baseline, week 4, week 13, and month 5 or upon early discontinuation of trial medication)."}, "[3]": {"system": "Patients diagnosed with Alzheimer's Disease", "assay": "Discontinuation of trial medication"}}, "data": [{"smiles": "COc1ccc2c3c1O[C@H]1C[C@@H](O)C=C[C@@]31CCN(C)C2", "note": "[GAL, galantamine]", "values": [{"measurement": "Change in Total ADL score from baseline at Month 5, Mean", "setting": "[1]; 8 mg/day, LOCF", "result": "−3.2"}, {"measurement": "Change in Total ADL score from baseline at Month 5, Mean", "setting": "[1]; 8 mg/day, observed case", "result": "−3.1"}, {"measurement": "Change in Total ADL score from baseline at Month 5, Mean", "setting": "[1]; 16 mg/day, LOCF", "result": "−0.7"}, {"measurement": "Change in Total ADL score from baseline at Month 5, Mean", "setting": "[1]; 16 mg/day, observed case", "result": "−0.5"}, {"measurement": "Change in Total ADL score from baseline at Month 5, Mean", "setting": "[1]; 24 mg/day, LOCF", "result": "−1.5"}, {"measurement": "Change in Total ADL score from baseline at Month 5, Mean", "setting": "[1]; 24 mg/day, observed case", "result": "−1.6"}, {"measurement": "Change in Total NPI score from baseline at Month 5, Mean", "setting": "[2]; 8 mg/day, LOCF", "result": 2.3}, {"measurement": "Change in Total NPI score from baseline at Month 5, Mean", "setting": "[2]; 8 mg/day, observed case", "result": 2.3}, {"measurement": "Change in Total NPI score from baseline at Month 5, Mean", "setting": "[2]; 16 mg/day, LOCF", "result": "−0.1"}, {"measurement": "Change in Total NPI score from baseline at Month 5, Mean", "setting": "[2]; 16 mg/day, observed case", "result": "−0.1"}, {"measurement": "Change in Total NPI score from baseline at Month 5, Mean", "setting": "[2]; 24 mg/day, LOCF", "result": "−0.0"}, {"measurement": "Change in Total NPI score from baseline at Month 5, Mean", "setting": "[2]; 24 mg/day, observed case", "result": "−0.1"}, {"measurement": "DC due to adverse event, %", "setting": "[3]; 8 mg/day", "result": 6, "unit": "%"}, {"measurement": "Total discontinued (DC), %", "setting": "[3]; 8 mg/day", "result": 23, "unit": "%"}, {"measurement": "DC due to adverse event, %", "setting": "[3]; 16 mg/day", "result": 7, "unit": "%"}, {"measurement": "Total discontinued (DC), %", "setting": "[3]; 16 mg/day", "result": 22, "unit": "%"}, {"measurement": "DC due to adverse event, %", "setting": "[3]; 24 mg/day", "result": 10, "unit": "%"}, {"measurement": "Total discontinued (DC), %", "setting": "[3]; 24 mg/day", "result": 22, "unit": "%"}]}]}
